Assay results as given in paper PMC5627009, “Cyclotides Isolated from an Ipecac Root Extract Antagonize the Corticotropin Releasing Factor Type 1 Receptor” (Frontiers in Pharmacology, 2017).

Assays:
human CRF1R [1] = target: T1, human CRF1R (Homo sapiens, UniProt P34998); experiment: cAMP accumulation assay at CRF1R (LANCE Ultra cAMP); format: cell-based
T1 construct: expressed in transfected cells; host or cells: HEK293
T1 sequence (P34998 24-415): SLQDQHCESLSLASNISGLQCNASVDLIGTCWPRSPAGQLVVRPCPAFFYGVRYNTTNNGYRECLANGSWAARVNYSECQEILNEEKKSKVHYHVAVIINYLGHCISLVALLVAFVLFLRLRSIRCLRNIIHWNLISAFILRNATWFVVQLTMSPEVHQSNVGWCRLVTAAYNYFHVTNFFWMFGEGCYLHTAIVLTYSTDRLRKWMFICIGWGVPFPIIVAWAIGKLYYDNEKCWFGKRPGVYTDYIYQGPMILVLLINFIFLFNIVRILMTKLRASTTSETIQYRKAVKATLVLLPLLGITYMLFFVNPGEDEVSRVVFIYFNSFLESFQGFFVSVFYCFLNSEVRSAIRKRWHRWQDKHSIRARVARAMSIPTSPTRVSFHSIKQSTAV
Description: (§1) Receptor-mediated cAMP accumulation was measured in HEK293 cells transiently transfected with the human CRF1R (with C-terminal GFP tag) using the LANCE® Ultra cAMP Detection kit (PerkinElmer, Waltham, MA, United States). To prepare for experiments, HEK293 cells were grown to confluence in a 6-well plate, followed by transfection with 2.5 μg of plasmid DNA per well using the Lipofectamine® 2000 transfection reagent (Thermo Fisher Scientific). After 4–6 h post-transfection, the cell media was replaced, followed by dissociation of cells via trituration and division of the cell suspension to avoid overcrowding over the subsequent 48 h of incubation at 37°C and 5% CO2. On the day of assay, cells were dissociated with phosphate buffered saline- (PBS-)EDTA solution (137 mM NaCl, 2.7 mM KCl, 10 mM Na2HPO4, 1.8 mM KH2PO4, 1 mM EDTA) and re-suspended in stimulation buffer (1.26 mM CaCl2, 0.49 mM MgCl2, 0.41 mM MgSO4, 5.33 mM KCl, 0.44 mM KH2PO4, 4.17 mM NaHCO3, 138 mM NaCl, 0.34 mM Na2HPO4, 5.56 mM D-glucose, 5 mM HEPES, 0.5 mM IBMX, 0.1% BSA; pH 7.4). Stimulation of cAMP accumulation via the human CRF1R and the human V2R used 500 cells and 300 cells (expressing these receptors) per well, respectively, in 384-well white Cellstar® plates (Greiner Bio-One, Kremsmuenster, Austria). Cells were incubated with the respective cognate receptor agonist peptides, in the absence and presence of cyclotide, for 30 min at 23°C in a final volume of 10 μL of stimulation buffer. Termination of cAMP accumulation was performed with the addition of 5 μL of Eu-cAMP tracer solution and 5 μL of ULight-anti-cAMP antibody solution, each prepared in detection buffer, followed by incubation of the plate for 1 h at 23°C with the lid on. After incubation, the plate was read in a Flexstation 3 plate reader (Molecular Devices, Sunnyvale, CA, United States).
Data from cellular assays were analyzed using GraphPad Prism 7.01 (GraphPad Software, San Diego, CA, United States). Concentration-response curve data were fitted to the three-parameter logistic equation to derive estimates of potency (LogIC50, luciferase; LogEC50, cAMP) and efficacy (Emax), relative to the maximal agonist control response. CRF LogEC50 values in the absence and presence of caripe 8 were statistically compared via extra sum-of-squares F test analysis. Other statistical analyses were performed as appropriate using one-way analysis of variance (ANOVA) with Bonferroni’s post-test, and significance taken as p < 0.05.

human V2R = experiment: cAMP accumulation assay at vasopressin V2 receptor (LANCE Ultra cAMP); format: cell-based; conditions: HEK293 transiently expressing human V2R, caripe 8 26 nM & 260 nM, 30 min, 23°C, five or more experiments in triplicate, not statistically different (One-way ANOVA)
Description: as §1, with “Stimulation of cAMP accumulation via the human CRF1R and the human V2R used 500 cells and 300 cells (expressing these receptors) per well, respectively, in 384-well white Cellstar® plates (Greiner Bio-One, Kremsmuenster, Austria). Cells were incubated with the respective cognate receptor agonist peptides, in the absence and presence of cyclotide, for 30 min at 23°C in a final volume of 10 μL of stimulation buffer. Termination of cAMP accumulation was performed with the addition of 5 μL of Eu-cAMP tracer solution and 5 μL of ULight-anti-cAMP antibody solution, each prepared in detection buffer, followed by incubation of the plate for 1 h at 23°C with the lid on.” left out
Data from cellular assays were analyzed using GraphPad Prism 7.01 (GraphPad Software, San Diego, CA, United States). […]

human CRF1R [2] = target: T1, human CRF1R; experiment: CRE luciferase reporter gene assay (CRF1R antagonism/agonism); format: cell-based; conditions: fraction F, relative to the other identified cyclotides
Description: The ipecac extract was tested for its modulating effect on CRF1R signaling using a cell-based luciferase reporter assay. HEK293 cells transiently transfected with an C-terminally GFP-tagged human CRF1R and a luciferase-coupled cAMP response element (CRE) were stimulated with varying concentrations of ipecac extract (0.01–50 μg mL^-1) in the presence and absence of 50 nM endogenous corticotropin-releasing factor (CRF) ligand. Concentration-dependent inhibition of receptor signaling was determined by measuring luciferase induction and accounting for the fluorescence of receptor-positive cells. The amount of luminescence of the control samples incubated with hormone alone was defined as 100% efficacy (Figure 1E). The inhibitory potency of the corresponding cyclotide-containing ipecac extract was measured and normalized relative to the efficacy of the control. […] The inhibitory potency of the ipecac extract to antagonize CRF1R signaling was determined as half-maximal concentration (IC50) as 2.0 μg mL^-1 (Figure 1F). […]
After confirming the presence of cyclotides in the ipecac extract, we aimed to isolate the cyclotides responsible for CRF1R antagonism using a bioassay-guided fraction approach. […] All fractions were analyzed by analytical HPLC and MALDI-TOF MS. […] Fractions C and D were determined to contain at least two cyclotides (Figures 4B,C and Supplementary Figure 1). […]

oxytocin receptor = conditions: ref Koehbach et al. (2013b); cited from earlier work
Description: (§2) Cyclotides are plant-derived cyclic peptides that are currently of great interest as lead molecules and peptide scaffolds for pharmaceutical drug development ([Thell et al., 2016]; [Craik and Du, 2017]). They were first isolated from O. affinis (Rubiaceae), a plant used as herbal preparation (‘kalata-kalata’) in traditional Congolese medicine for its uterotonic properties ([Gran, 1970]; [Craik et al., 1999]; [Gran et al., 2000]). Evidence-based proof of the plant’s traditional use in childbirth and post-partum care was provided in 2013; [Koehbach et al. (2013b)] isolated the cyclotide kalata B ...

vasopressin V1a receptor = conditions: ref Koehbach et al. (2013b); cited from earlier work
Description: as §2

| Substance | fold reduction of CRF potency (human CRF1R [1]; 260 nM caripe 8, CRF concentration-response, HEK293 with human CRF1R, 30 min, 23°C, pH 7.4, six independent experiments in triplicate) | effect on CRF maximal response (human CRF1R [1]; 260 nM caripe 8, CRF concentration-response, six experiments in triplicate) | difference of CRF LogEC50 in absence and presence of caripe 8 (human CRF1R [1]; 260 nM caripe 8, extra sum-of-squares F test, six experiments in triplicate) | inhibition of CRF1R-mediated cAMP response to CRF (human CRF1R [1]; 2.6, 26 and 260 nM cyclotide with an EC50 / approximate EC80 (Fig. 6A) of CRF, 30 min, 23°C, three experiments in triplicate) | effect on cAMP accumulation in combination with submaximal forskolin (human CRF1R [1]; HEK293, human CRF1R, submaximal agonist concentrations of forskolin) | intrinsic activity in the cAMP assay (human CRF1R [1]; HEK293 transiently expressing human CRF1R, cyclotide alone, 30 min, 23°C, pH 7.4) | mode of antagonism at CRF1R (human CRF1R [1]; suggested from modest and limited antagonism) | limit of concentration-dependent inhibition of CRF-mediated cAMP response (data not shown) (human CRF1R [1]; titration with CRF, data not shown) | effect on arginine-vasopressin-stimulated cAMP accumulation (human V2R; AVP 50 pM) | effect on forskolin-stimulated cAMP accumulation (human V2R; forskolin 300 nM) | relative effectiveness as inhibitor of CRF1R-mediated luciferase activity (human CRF1R [2]) | affinity and potency at oxytocin receptor (oxytocin receptor) | mode of action at oxytocin receptor (oxytocin receptor) | affinity and potency at vasopressin V1a receptor (vasopressin V1a receptor) | mode of action at vasopressin V1a receptor (vasopressin V1a receptor) |
| --- | --- | --- | --- | --- | --- | --- | --- | --- | --- | --- | --- | --- | --- | --- | --- |
| GVIPCGESCVFIPCITAAI–GCSCKKKVCYRN (bicyclic or more) [caripe 8, natural bracelet cyclotide isolated from fraction F of ipecac root extract] | approximately 4.5 fold | lack of effect | significantly different from each other (p < 0.05) | modest concentration-dependent inhibition | no effect | did not exhibit any intrinsic activity | does not interact competitively with the CRF binding site | observed to reach a threshold | not altered | not altered | the most effective inhibitor | – | – | – | – |
| kalata B7 | – | – | – | – | – | – | – | – | – | – | – | moderate affinity and potency (μM-concentration range) | partial agonist | moderate affinity and potency (μM-concentration range) | partial agonist |
